In PubChem BioAssay (NCI) one finds GI50 and TGI data, which are given here for 16 compounds.

Structures are written as SMILES.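 Cells were grown in 96-well plates and exposed to each compound for 48 hours at five concentrations; endpoints were interpolated linearly between bracketing concentrations, or set to the highest concentration if not reached. Abbreviation: GI50, concentration required for 50% inhibition of growth. The concentration for full growth arrest is given as TGI.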

Some test systems named below: NCI-H460 lung; MCF7 breast; ACHN renal; CAKI-1 renal; SK-OV-3 ovarian; MDA-N; T-47D breast; RXF 393 renal; OVCAR-5 ovarian; HOP-62 NSCLC.
Common to all, as to experiment: growth of human tumour cells (NCI), 48 h

As to `CC1CCC(n2c3cnccc3c3cnc(Nc4ccc5c(n4)CCN(C(=O)CO)C5)nc32)CC1` (stereo not drawn), the GI50 is 0.422 µM with NCI-H460 lung; 0.127 µM with MCF7 breast; 0.469 µM in the test on ACHN renal; 0.536 µM with CAKI-1 renal; over 100 µM in the test on SK-OV-3 ovarian. In addition, the TGI in the test on NCI-H460 lung, in the test on MCF7 breast, in the test on ACHN renal, with CAKI-1 renal and with SK-OV-3 ovarian was over 100 µM throughout.

Regarding `COc1ccc2c(c1)/C(=C/CCN(C)C)c1ccccc1S2`, the TGI in the test on NCI-H460 lung, in the test with ACHN renal, in the test with MDA-N, with T-47D breast, with SK-OV-3 ovarian and in the test with RXF 393 renal was over 100 µM throughout.

Turning to `CC(C)(C)OC(=O)N[C@H]1CCN(C2CCCCC2)C1=O`, the TGI in the test on NCI-H460 lung, with MCF7 breast, with OVCAR-5 ovarian, with ACHN renal, with MDA-N and with HOP-62 NSCLC was over 100 µM in each case. The TGI with SK-OV-3 ovarian was over 100 µM.

On to `CC(C)CCS(=O)(=O)OCCCCOS(=O)(=O)CCC(C)C`, for which the TGI in the test with NCI-H460 lung is over 100 µM; in the test with ACHN renal, over 100 µM; in the test on HOP-62 NSCLC, 26.9 µM; with SK-OV-3 ovarian, over 100 µM; with RXF 393 renal, over 100 µM.

Take `Cc1cn2c(/C=N/N=C(N)N)c(-c3cccc([N+](=O)[O-])c3)nc2s1`: the TGI in the test on NCI-H460 lung came to 3.78 µM; in the test on MCF7 breast, 2.12 µM; with OVCAR-5 ovarian it was 5.5 µM; in the test with ACHN renal it was 3.03 µM; with CAKI-1 renal, 6.06 µM; with RXF 393 renal, 2.5 µM.

For the compound `COc1cccc(C(=O)O[C@H]2[C@@H]3[C@]4(OC(C)=O)CO[C@@H]4C[C@H](O)[C@@]3(C)C(=O)[C@H](OC(C)=O)C3=C(C)[C@@H](OC(=O)[C@H](O)[C@@H](NC(=O)OC(C)(C)C)c4ccco4)C[C@]2(O)C3(C)C)c1`, the TGI in the test with NCI-H460 lung is over 37.5 µM; in the test on MCF7 breast it was over 37.5 µM; with OVCAR-5 ovarian, over 22.8 µM; in the test on ACHN renal it was over 37.5 µM; in the test on MDA-N, 0.0382 µM; in the test on HOP-62 NSCLC it was over 32.7 µM. In addition, the TGI is over 37.5 µM with CAKI-1 renal, 0.0279 µM in the test on SK-OV-3 ovarian and over 9.16 µM in the test with RXF 393 renal.

Regarding `COc1ccc(COCCOCc2nc(C#N)c(N)o2)cc1`, the TGI with NCI-H460 lung, in the test with MCF7 breast, with OVCAR-5 ovarian, in the test with ACHN renal, with HOP-62 NSCLC and in the test on T-47D breast was over 100 µM in each case. The TGI in the test with CAKI-1 renal, with SK-OV-3 ovarian and in the test on RXF 393 renal was over 100 µM in each case.

`CCOC(=O)C(SCCO)C(C(=O)OCC)n1cnc2c(=O)[nH]c(NC(C)=O)nc21` (stereo not drawn): the TGI in the test with NCI-H460 lung, with MCF7 breast, with OVCAR-5 ovarian, with ACHN renal, in the test on MDA-N and with HOP-62 NSCLC was over 100 µM in each case. Besides, the TGI with T-47D breast, in the test with CAKI-1 renal and in the test with SK-OV-3 ovarian was over 100 µM in each case.

For `O=C1CSC(c2ccc(Cl)cc2)N1c1ccc(Oc2ccc(Cl)cc2)c(Cl)c1` (stereo not drawn), the TGI was 35.5 µM in the test with NCI-H460 lung; 44.1 µM in the test with MCF7 breast; 29.6 µM in the test with OVCAR-5 ovarian; 31.2 µM in the test on ACHN renal; 30.4 µM in the test with MDA-N; 41.9 µM in the test with HOP-62 NSCLC. Besides, the values for the TGI in the test on T-47D breast, with CAKI-1 renal and in the test on SK-OV-3 ovarian were 24.9 µM, 26 µM and 31.9 µM, respectively.

As to `CN1C(=O)C2CCC(=O)N2c2cccnc21` (stereo not drawn), the TGI with NCI-H460 lung, in the test with MCF7 breast, with ACHN renal, in the test on MDA-N, with HOP-62 NSCLC and with T-47D breast was over 100 µM each time. The compound further came in with a TGI in the test on CAKI-1 renal of over 100 µM.

Regarding `COc1ccc(-c2c(C#N)c(-c3ccc(C)cc3)n(NS(=O)(=O)c3ccc(C)cc3)c(=O)c2C#N)cc1`, the TGI with NCI-H460 lung, in the test on MCF7 breast, in the test on OVCAR-5 ovarian, in the test on ACHN renal, in the test with MDA-N and in the test on HOP-62 NSCLC was over 100 µM throughout. Further, the TGI in the test on CAKI-1 renal, in the test with SK-OV-3 ovarian and in the test on RXF 393 renal was over 100 µM throughout.

In the case of `CC(=O)OC1CC(OC2C(O)CC(OC3C(O)CC(OC4CCC5(C)C(CCC6C5CC(O)C5(C)C(C7=CC(=O)OC7)CCC65O)C4)OC3C)OC2C)OC(C)C1OC1OC(CO)C(O)C(O)C1O` (stereo not drawn), the TGI was determined as 0.0678 µM in the test with NCI-H460 lung; 0.431 µM in the test on MCF7 breast; 0.222 µM in the test on OVCAR-5 ovarian; 0.146 µM in the test on ACHN renal; 0.526 µM in the test with MDA-N; 0.0956 µM in the test on HOP-62 NSCLC. Besides, the TGI in the test with T-47D breast is 0.633 µM; with CAKI-1 renal, 0.0904 µM; with SK-OV-3 ovarian, 0.333 µM.

`Nc1nc(SCCc2ccccc2)c2[nH]cnc2n1`: the TGI in the test with NCI-H460 lung, with OVCAR-5 ovarian, in the test with ACHN renal, in the test on MDA-N, in the test on HOP-62 NSCLC and in the test on T-47D breast was over 100 µM throughout. The TGI in the test on CAKI-1 renal and with RXF 393 renal was over 100 µM in each case.

Turning to `COC(=O)c1ccccc1CC1Cc2ccc3c(c2C1=O)CCCC3` (stereo not drawn), the TGI with NCI-H460 lung, in the test on MCF7 breast, in the test with OVCAR-5 ovarian, with ACHN renal, in the test with MDA-N and in the test with HOP-62 NSCLC was over 100 µM throughout. Besides, the results for the TGI in the test with T-47D breast, with CAKI-1 renal and with SK-OV-3 ovarian were over 78.1 µM, over 100 µM and over 100 µM, respectively.

`c1ccc(N=c2sc3ccccc3nc2Nc2ccccc2)cc1`: the TGI with NCI-H460 lung, with OVCAR-5 ovarian, in the test on ACHN renal, with HOP-62 NSCLC, in the test with T-47D breast and in the test with CAKI-1 renal was over 100 µM each time. For the same compound, the TGI with SK-OV-3 ovarian and with RXF 393 renal was over 100 µM throughout.

With `Cc1ccc(C(=O)O)cc1S(=O)(=O)Nn1cnc2ccc(S(=O)(=O)Nc3ccccc3C(=O)O)cc2c1=O`, the TGI in the test on NCI-H460 lung, with MCF7 breast, with OVCAR-5 ovarian, in the test on ACHN renal, in the test on MDA-N and in the test on HOP-62 NSCLC was over 100 µM in each case. The TGI in the test on CAKI-1 renal and in the test on SK-OV-3 ovarian was over 100 µM in each case.
